Columns and labels:
amylase = conditions: prior art statement; cited from earlier work
papain = molecular target: T1, papain (Carica papaya, UniProt P00784); test: Action of various proteases on Amylostatin-A; type: in vitro ADME
T1 sequence (P00784 134-345): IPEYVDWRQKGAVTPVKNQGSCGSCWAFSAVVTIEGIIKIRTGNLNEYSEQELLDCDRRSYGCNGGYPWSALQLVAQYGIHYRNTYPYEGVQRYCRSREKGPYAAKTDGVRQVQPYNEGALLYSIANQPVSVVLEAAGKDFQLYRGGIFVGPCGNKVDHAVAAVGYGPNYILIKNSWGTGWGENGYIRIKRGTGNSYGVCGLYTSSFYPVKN

[1] = Stability in buffer solution (pH and heat); type: physicochemical
[2] = system: bacterial α-amylase (crystalline); test: Assay of amylase inhibitory activity (units); type: biochemical; conditions: purified powdery preparation, Example 1
Description: The reaction mixture consisting of 4 ml of a 1.5% soluble starch solution in 0.1M acetate buffer solution at pH 5.5, 0.5 ml of distilled water and 0.5 ml of the amylase solution to be assayed (amylase or bacterial α-amylase (crystalline) ) is incubated at 37° C. for 10 minutes and the reaction is terminated by adding a mixture of 5:1 by volume of 0.5N acetic acid and 0.5N hydrochloric acid. From this solution, 0.2 ml is withdrawn and added to 5 ml of N/3000 iodine solution and the absorbency is measured at 660 nm. The amylase activity per one ml of the enzyme solution expressed in units is calculated as follows: [formula] in which D is the optical density of the enzyme solution and Do is the optical density of the control.
The reaction mixture consisting of 0.5 ml of 2 × 10^^-4 % of bacterial α-amylase (crystalline) and 0.5 ml of the solution of Amylostatin-A is incubated at 37° C. for 10 minutes. Any residual amylase activity is determined according to the method of assay of amylase activity described above. One unit of amylase inhibitory activity is defined as the amount of inhibitory activity necessary to inactivate one unit of amylase.

pepsin = pepsin (Sus scrofa, UniProt P00791); test: Action of various proteases on Amylostatin-A; type: in vitro ADME
Sequence of pepsin (P00791 60-385): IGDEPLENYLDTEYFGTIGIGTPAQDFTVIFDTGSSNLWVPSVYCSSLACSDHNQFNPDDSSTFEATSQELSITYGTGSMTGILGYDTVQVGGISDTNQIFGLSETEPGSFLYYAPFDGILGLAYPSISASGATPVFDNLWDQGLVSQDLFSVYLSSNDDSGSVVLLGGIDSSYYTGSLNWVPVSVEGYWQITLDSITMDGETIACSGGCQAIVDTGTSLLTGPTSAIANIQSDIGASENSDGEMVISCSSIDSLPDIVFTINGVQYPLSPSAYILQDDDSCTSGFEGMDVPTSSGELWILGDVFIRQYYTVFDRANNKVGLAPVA

trypsin = test: Action of various proteases on Amylostatin-A; type: in vitro ADME
chymotrypsin = chymotrypsin (Bos taurus, UniProt P00766); test: Action of various proteases on Amylostatin-A; type: in vitro ADME
[3] = system: digestion and absorption of starch; test: Biological test on digestibility of starch; type: in vivo, male rats of Wistar strain; conditions: rats, 4 hours
Description: An experiment concerning the inhibitory effect of Amylostatin-A on the digestion and absorption of starch in vivo was carried out using sound male rats of Wistar strain weighing from 250 to 300g. After they had been made to fast, receiving only water for 48 hours, 60 rats were selected and divided into 10 groups of each 5 or 10 as shown in Table 4.
Rats in control groups were given either 2.5 ml of an isotonic sodium chloride solution in which 300 mg of soluble starch (Wako Junyaku Co., Inc.) was dissolved or 2.5 ml of an isotonic sodium chloride solution in which 300 mg of corn starch (Japanese Pharmacopia) was suspended. The rats were subjected to a laparotomy, the solution was injected into the stomach and the incision site was sutured. Rats in test groups were given the same amount and kinds of solutions as given to the rats in control groups except that varying amounts of crude Amylostatin-A obtained according to the methods of Example 1 were added as shown in Table 4. The test solutions were administered in the same manner as the control solutions.
After the lapse of definite periods of time, all rats were again laparotomized at the site of the original incision and all contents of the stomach and small intestines were removed by washing with an isotonic sodium chloride solution. To these washings containing residual starch, 25 ml of 1N hydrochloric acid was added. The mixture was heated to carry the hydrolytic reaction to completion and the quantity of reducing sugar formed was determined by Somogyi's method.

Solubility = type: physicochemical

OC[C@H]1NC(O)[C@H](O)[C@@H](O)[C@@H]1O (stereo partly shown) [Nojirimycin]
amylase inhibitory activities (amylase): extremely low

Amylostatin-A
inactivation of the inhibitory activity on amylase by protease (papain): unable to inactivate
Stability ([1]; buffer solution, pH 1 to 12, 37° C. for 12 hours): substantial stability
Stability ([1]; heated at 100° C. for 30 minutes, pH 1 to 12): substantial stability
amylase inhibitory activity [2]: 3.5 × 10^4 units per mg
inactivation of the inhibitory activity on amylase by protease (pepsin): unable to inactivate
inactivation of the inhibitory activity on amylase by protease (trypsin): unable to inactivate
inactivation of the inhibitory activity on amylase by protease (chymotrypsin): unable to inactivate
residual % of starch (average) ([3]; 300 mg cornstarch into the stomach, 2.5 mg crude Amylostatin-A added): 82.5%
residual % of starch (average) ([3]; 300 mg cornstarch into the stomach, 5 mg crude Amylostatin-A added): 93.6%
residual % of starch (average) ([3]; 300 mg cornstarch into the stomach, 10 mg crude Amylostatin-A added): 92.5%
residual % of starch (average) ([3]; 300 mg soluble starch (dissolved on heating) into the stomach, 5 mg crude Amylostatin-A added): 63.8%
residual % of starch (average) ([3]; 300 mg soluble starch (dissolved on heating) into the stomach, 10 mg crude Amylostatin-A added): 65.7%
Solubility (Solubility; acetone): substantially insoluble
Solubility (Solubility; chloroform): substantially insoluble
Solubility (Solubility; ethanol): substantially insoluble
Solubility (Solubility; methanol): substantially insoluble
Solubility (Solubility; pyridine): soluble
Solubility (Solubility; water): soluble

Reference: US4010258A, “Microbial amylase inhibitor and preparation thereof with the use of streptomyces diasticus var. amylostaticus” (Ajinomoto Co., Inc., priority 1974, dated 1977)
